Patent US20080234262A1 (Wyeth, priority 2007, published 2008)

How the values were obtained:
breast line MDA468 = assay: In vitro cell culture growth assay (MTS), MDA468; assay type: cell-based, human; conditions: MDA468 cells, three days after drug treatment
How it was run: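 Growth measured as percent of same-plate vehicle control by MTS metabolic dye conversion (A490). Breast MDA468 and prostate LNCap cells, plated a day ahead, were exposed to compounds for 3 days.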

PI3K = PI3K (Homo sapiens, UniProt P42336); assay: Fluorescence polarization assay for PI3K; assay type: biochemical; conditions: PI3Kα; read-out: PI3Kα IC50;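 note: PI3K kinase reaction on PIP2 with ATP, 30-60 min, product sensed by GST-GRP with red probe in fluorescence polarization (mP), controls without enzyme and at zero time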
prostate line LNCap = assay: In vitro cell culture growth assay (MTS), LNCap; assay type: cell-based, human; conditions: LNCap cells, three days after drug treatment;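 note: viable cell density read by absorbance at 490 nm, growth expressed as percent of vehicle-treated cells on the same plate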

PI3K, sequence (P42336 whole entry): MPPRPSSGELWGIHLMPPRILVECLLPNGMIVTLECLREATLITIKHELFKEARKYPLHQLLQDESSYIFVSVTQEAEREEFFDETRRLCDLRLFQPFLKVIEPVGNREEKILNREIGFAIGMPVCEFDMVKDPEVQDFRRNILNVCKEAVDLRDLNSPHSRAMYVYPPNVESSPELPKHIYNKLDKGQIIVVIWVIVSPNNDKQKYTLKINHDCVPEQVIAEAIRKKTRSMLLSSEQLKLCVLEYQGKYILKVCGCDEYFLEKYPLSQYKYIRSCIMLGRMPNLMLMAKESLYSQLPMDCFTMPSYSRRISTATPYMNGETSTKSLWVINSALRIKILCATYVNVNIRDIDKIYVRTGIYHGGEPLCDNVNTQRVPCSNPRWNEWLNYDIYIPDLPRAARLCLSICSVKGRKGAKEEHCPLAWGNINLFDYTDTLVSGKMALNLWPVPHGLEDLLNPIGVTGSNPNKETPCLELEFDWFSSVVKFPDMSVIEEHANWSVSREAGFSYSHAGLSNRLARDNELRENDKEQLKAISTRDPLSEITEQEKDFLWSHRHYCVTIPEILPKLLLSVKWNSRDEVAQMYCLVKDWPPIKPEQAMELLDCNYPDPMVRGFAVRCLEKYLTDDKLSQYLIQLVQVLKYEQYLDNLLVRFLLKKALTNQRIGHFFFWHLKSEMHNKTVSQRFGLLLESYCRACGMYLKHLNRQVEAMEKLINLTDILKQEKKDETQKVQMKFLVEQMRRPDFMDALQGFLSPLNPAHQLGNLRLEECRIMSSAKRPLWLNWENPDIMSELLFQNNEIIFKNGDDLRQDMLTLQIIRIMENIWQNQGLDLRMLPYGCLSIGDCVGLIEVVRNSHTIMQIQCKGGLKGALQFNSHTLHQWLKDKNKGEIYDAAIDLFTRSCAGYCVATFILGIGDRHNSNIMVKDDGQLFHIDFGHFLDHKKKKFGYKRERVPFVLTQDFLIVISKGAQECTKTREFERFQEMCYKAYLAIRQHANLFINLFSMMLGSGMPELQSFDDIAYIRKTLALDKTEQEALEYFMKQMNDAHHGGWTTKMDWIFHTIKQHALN
PI3K, sequence (P27986 whole entry partner): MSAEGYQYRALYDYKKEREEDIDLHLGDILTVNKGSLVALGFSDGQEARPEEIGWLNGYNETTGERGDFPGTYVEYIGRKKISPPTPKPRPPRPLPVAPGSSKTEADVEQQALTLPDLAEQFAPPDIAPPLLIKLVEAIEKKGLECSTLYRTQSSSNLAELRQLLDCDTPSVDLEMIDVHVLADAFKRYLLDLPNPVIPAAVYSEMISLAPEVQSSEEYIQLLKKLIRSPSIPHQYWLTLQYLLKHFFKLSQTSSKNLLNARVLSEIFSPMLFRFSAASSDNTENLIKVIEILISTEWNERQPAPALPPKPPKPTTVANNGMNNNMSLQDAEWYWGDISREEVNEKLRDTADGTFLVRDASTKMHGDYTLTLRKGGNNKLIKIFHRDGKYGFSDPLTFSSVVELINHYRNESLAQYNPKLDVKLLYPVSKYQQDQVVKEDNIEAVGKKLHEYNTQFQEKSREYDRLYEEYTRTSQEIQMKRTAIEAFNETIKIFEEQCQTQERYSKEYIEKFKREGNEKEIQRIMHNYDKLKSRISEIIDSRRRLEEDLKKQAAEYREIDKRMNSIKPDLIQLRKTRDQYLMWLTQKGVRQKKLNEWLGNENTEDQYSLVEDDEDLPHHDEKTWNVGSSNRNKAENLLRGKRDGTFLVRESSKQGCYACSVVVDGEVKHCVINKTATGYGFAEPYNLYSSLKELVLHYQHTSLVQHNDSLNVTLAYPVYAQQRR

Structure (SMILES): CN1CCN(C(=O)N2CCC(n3ncc4c(N5CCOCC5)nc(-c5ccc6[nH]ccc6c5)nc43)CC2)CC1 [Compound 120]
- IC50 (breast line MDA468; Homo sapiens, 72 h): 2000 nM
- IC50 (PI3K): 737 nM
- IC50 (prostate line LNCap; Homo sapiens, LNCaP, 72 h): 700 nM

Structure (SMILES): COC(=O)N1CCC(n2ncc3c(N4CCOCC4)nc(-c4ccc(NC(=O)Nc5ccccc5F)cc4)nc32)CC1 [Compound 860, methyl 4-[6-(4-{[(2-fluorophenyl)carbamoyl]amino}phenyl)-4-morpholin-4-yl-1H-pyrazolo[3,4-d]pyrimidin-1-yl]piperidine-1-carboxylate]
- IC50 (breast line MDA468; Homo sapiens, 72 h): 390 nM
- IC50 (PI3K): 38 nM
- IC50 (prostate line LNCap; Homo sapiens, LNCaP, 72 h): 120 nM

Structure (SMILES): CN(C)CCCNC(=O)Nc1ccc(-c2nc(N3CCOCC3)c3cnn(C4CCN(Cc5ccccc5)CC4)c3n2)cc1 [Compound 516, 1-{4-[1-(1-benzylpiperidin-4-yl)-4-morpholin-4-yl-1H-pyrazolo[3,4-d]pyrimidin-6-yl]phenyl}-3-[3-(dimethylamino)propyl]urea]
- IC50 (breast line MDA468; Homo sapiens, 72 h): 2000 nM
- IC50 (PI3K): 158 nM
- IC50 (prostate line LNCap; Homo sapiens, LNCaP, 72 h): 650 nM

Structure (SMILES): O=C(c1ccc(Cl)cc1)N1CCC(n2ncc3c(N4CCOCC4)nc(-c4cccc(O)c4)nc32)CC1 [Compound 27]
- IC50 (breast line MDA468; Homo sapiens, 72 h): 2400 nM
- IC50 (PI3K): 41 nM
- IC50 (prostate line LNCap; Homo sapiens, LNCaP, 72 h): 550 nM

Structure (SMILES): Cc1cc(NC(=O)Nc2ccc(-c3nc(N4CCOCC4)c4cnn(C5CCN(C(=O)OC(C)(C)C)CC5)c4n3)cc2)on1 [Compound 883, tert-butyl 4-[6-(4-{[(3-methylisoxazol-5-yl)carbamoyl]amino}phenyl)-4-morpholin-4-yl-1H-pyrazolo[3,4-d]pyrimidin-1-yl]piperidine-1-carboxylate]
- IC50 (breast line MDA468; Homo sapiens, 72 h): 1300 nM
- IC50 (PI3K): 160 nM
- IC50 (prostate line LNCap; Homo sapiens, LNCaP, 72 h): 270 nM

Structure (SMILES): CCCOC(=O)N1CCC(n2ncc3c(N4CCOCC4)nc(-c4ccc(NC(=O)NCCF)cc4)nc32)CC1 [Compound 854, propyl 4-[6-(4-{[(2-fluoroethyl)carbamoyl]amino}phenyl)-4-morpholin-4-yl-1H-pyrazolo[3,4-d]pyrimidin-1-yl]piperidine-1-carboxylate]
- IC50 (breast line MDA468; Homo sapiens, 72 h): 330 nM
- IC50 (PI3K): 600 nM
- IC50 (prostate line LNCap; Homo sapiens, LNCaP, 72 h): 27 nM

Structure (SMILES): O=C(NCCF)Nc1ccc(-c2nc(N3CCOCC3)c3cnn(-c4ccccc4)c3n2)cc1 [Compound 540, 1-(2-fluoroethyl)-3-[4-(4-morpholin-4-yl-1-phenyl-1H-pyrazolo[3,4-d]pyrimidin-6-yl)phenyl]urea]
- IC50 (breast line MDA468; Homo sapiens, 72 h): 900 nM
- IC50 (PI3K): 250 nM
- IC50 (prostate line LNCap; Homo sapiens, LNCaP, 72 h): 190 nM

Structure (SMILES): COC(=O)Nc1ccc(-c2nc(N3CCOCC3)c3cnn(C4CCN(Cc5ccccc5Cl)CC4)c3n2)cc1 [Compound 455, methyl (4-{1-[1-(2-chlorobenzyl)piperidin-4-yl]-4-morpholin-4-yl-1H-pyrazolo[3,4-d]pyrimidin-6-yl}phenyl)carbamate]
- IC50 (breast line MDA468; Homo sapiens, 72 h): 5200 nM
- IC50 (PI3K): 786 nM
- IC50 (prostate line LNCap; Homo sapiens, LNCaP, 72 h): 2500 nM

Structure (SMILES): CNC(=S)Nc1ccc(-c2nc(N3CCOCC3)c3cnn(C4CCN(C(=O)OC(C)C)CC4)c3n2)cc1 [Compound 831, isopropyl 4-[6-(4-{[(methylamino)carbonothioyl]amino}phenyl)-4-morpholin-4-yl-1H-pyrazolo[3,4-d]pyrimidin-1-yl]piperidine-1-carboxylate]
- IC50 (breast line MDA468; Homo sapiens, 72 h): 390 nM
- IC50 (PI3K): 236 nM
- IC50 (prostate line LNCap; Homo sapiens, LNCaP, 72 h): 50 nM

Structure (SMILES): O=C(NCCCc1ccccc1)Nc1ccc(-c2nc(N3CCOCC3)c3cnn(C4CCN(Cc5ccccc5)CC4)c3n2)cc1 [Compound 506, 1-{4-[1-(1-benzylpiperidin-4-yl)-4-morpholin-4-yl-1H-pyrazolo[3,4-d]pyrimidin-6-yl]phenyl}-3-(3-phenylpropyl)urea]
- IC50 (breast line MDA468; Homo sapiens, 72 h): > 60000 nM
- IC50 (PI3K): 7030 nM
- IC50 (prostate line LNCap; Homo sapiens, LNCaP, 72 h): 4500 nM

Structure (SMILES): COC(=O)N1CCC(n2ncc3c(N4CCOCC4)nc(-c4ccc5[nH]ccc5c4)nc32)CC1 [Example 244, methyl 4-[6-(1H-indol-5-yl)-4-morpholin-4-yl-1H-pyrazolo[3,4-d]pyrimidin-1-yl]piperidine-1-carboxylate]
- IC50 (breast line MDA468; Homo sapiens, 72 h): 2100 nM
- IC50 (PI3K): 3300 nM
- IC50 (prostate line LNCap; Homo sapiens, LNCaP, 72 h): 750 nM

Structure (SMILES): COC(=O)N1CCC(n2ncc3c(N4CCOCC4)nc(-c4ccc(N/C(=N/C#N)Oc5ccccc5)cc4)nc32)CC1 [Compound 949, methyl 4-[6-(4-{[(Z)-(cyanoimino)(phenoxy)methyl]amino}phenyl)-4-morpholin-4-yl-1H-pyrazolo[3,4-d]pyrimidin-1-yl]piperidine-1-carboxylate]
- IC50 (breast line MDA468; Homo sapiens, 72 h): 25000 nM
- IC50 (PI3K): 1890 nM
- IC50 (prostate line LNCap; Homo sapiens, LNCaP, 72 h): 9800 nM

Structure (SMILES): c1ccc(CN2CCC(n3ncc4c(N5CCOCC5)nc(-c5cn[nH]c5)nc43)CC2)cc1 [Compound 189]
- IC50 (breast line MDA468; Homo sapiens, 72 h): 8300 nM
- IC50 (PI3K): 765 nM
- IC50 (prostate line LNCap; Homo sapiens, LNCaP, 72 h): 3200 nM

Structure (SMILES): CC(=O)Nc1ccc(-c2nc(N3CCOCC3)c3cnn(CCN4CCCCC4)c3n2)cc1 [Compound 127]
- IC50 (breast line MDA468; Homo sapiens, 72 h): 18000 nM
- IC50 (PI3K): 6520 nM
- IC50 (prostate line LNCap; Homo sapiens, LNCaP, 72 h): 5000 nM

Structure (SMILES): CNCCNC(=O)Nc1ccc(-c2nc(N3CCOCC3)c3cnn(C4CCN(C(=O)c5cccnc5)CC4)c3n2)cc1 [Compound 593, 1-[2-(methylamino)ethyl]-3-(4-{4-morpholin-4-yl-1-[1-(pyridin-3-ylcarbonyl)piperidin-4-yl]-1H-pyrazolo[3,4-d]pyrimidin-6-yl}phenyl)urea]
- IC50 (breast line MDA468; Homo sapiens, 72 h): 9000 nM
- IC50 (PI3K): 45 nM
- IC50 (prostate line LNCap; Homo sapiens, LNCaP, 72 h): 5000 nM

Structure (SMILES): O=C(Nc1ccc(-c2nc(N3CCOCC3)c3cnn(C4CCN(CC(F)(F)F)CC4)c3n2)cc1)Nc1ccccn1 [Compound 785, 1-(4-{4-morpholin-4-yl-1-[1-(2,2,2-trifluoroethyl)piperidin-4-yl]-1H-pyrazolo[3,4-d]pyrimidin-6-yl}phenyl)-3-pyridin-2-ylurea]
- IC50 (breast line MDA468; Homo sapiens, 72 h): 12000 nM
- IC50 (PI3K): 890 nM
- IC50 (prostate line LNCap; Homo sapiens, LNCaP, 72 h): 3800 nM

Structure (SMILES): O=C1CCCN1CCn1ncc2c(N3CCOCC3)nc(-c3cccc(O)c3)nc21 [Compound 164]
- IC50 (breast line MDA468; Homo sapiens, 72 h): 20000 nM
- IC50 (PI3K): 230 nM
- IC50 (prostate line LNCap; Homo sapiens, LNCaP, 72 h): 5700 nM

Structure (SMILES): COc1ccc(C(=O)N2CCC(n3ncc4c(N5CCOCC5)nc(-c5cccc(O)c5)nc43)CC2)cc1 [Compound 28, 3-{1-[1-(4-methoxybenzoyl)piperidin-4-yl]-4-morpholin-4-yl-1H-pyrazolo[3,4-d]pyrimidin-6-yl}phenol]
- IC50 (breast line MDA468; Homo sapiens, 72 h): 1100 nM
- IC50 (PI3K): 33 nM
- IC50 (prostate line LNCap; Homo sapiens, LNCaP, 72 h): 220 nM

Structure (SMILES): Oc1cccc(-c2nc(N3CCOCC3)c3cnn(CC(F)(F)F)c3n2)c1 [Compound 728, 3-[4-morpholin-4-yl-1-(2,2,2-trifluoroethyl)-1H-pyrazolo[3,4-d]pyrimidin-6-yl]phenol]
- IC50 (breast line MDA468; Homo sapiens, 72 h): 745 nM
- IC50 (PI3K): 40 nM
- IC50 (prostate line LNCap; Homo sapiens, LNCaP, 72 h): 240 nM

Structure (SMILES): O=C(Nc1ccncc1)Nc1ccc(-c2nc(N3CCOCC3)c3cnn(C4CCN(Cc5cccnc5)CC4)c3n2)cc1F [Compound 352, 1-(2-fluoro-4-{4-morpholin-4-yl-1-[1-(pyridin-3-ylmethyl)piperidin-4-yl]-1H-pyrazolo[3,4-d]pyrimidin-6-yl}phenyl)-3-pyridin-4-ylurea]
- IC50 (breast line MDA468; Homo sapiens, 72 h): 100 nM
- IC50 (PI3K): 35 nM
- IC50 (prostate line LNCap; Homo sapiens, LNCaP, 72 h): 27 nM

Structure (SMILES): COc1cccc(C(=O)N2CCC(n3ncc4c(N5CCOCC5)nc(-c5ccc6[nH]ccc6c5)nc43)CC2)c1 [Example 48]
- IC50 (breast line MDA468; Homo sapiens, 72 h): 2300 nM
- IC50 (PI3K): 780 nM
- IC50 (prostate line LNCap; Homo sapiens, LNCaP, 72 h): 590 nM

Structure (SMILES): COC(=O)N1CCC(n2ncc3c(N4CCOCC4)nc(-c4ccc(NC(=O)OCCCO)cc4)nc32)CC1 [Compound 909, methyl 4-[6-(4-{[(3-hydroxypropoxy)carbonyl]amino}phenyl)-4-morpholin-4-yl-1H-pyrazolo[3,4-d]pyrimidin-1-yl]piperidine-1-carboxylate]
- IC50 (breast line MDA468; Homo sapiens, 72 h): > 60000 nM
- IC50 (PI3K): 7030 nM
- IC50 (prostate line LNCap; Homo sapiens, LNCaP, 72 h): 1200 nM

Structure (SMILES): CNC(=O)Nc1cccc(-c2nc(N3CCOCC3)c3cnn(C4CCN(Cc5ccccc5)CC4)c3n2)c1 [Compound 228, N-{3-[1-(1-benzylpiperidin-4-yl)-4-morpholin-4-yl-1H-pyrazolo[3,4-d]pyrimidin-6-yl]phenyl}-N′-methylurea]
- IC50 (breast line MDA468; Homo sapiens, 72 h): 6800 nM
- IC50 (PI3K): 1920 nM
- IC50 (prostate line LNCap; Homo sapiens, LNCaP, 72 h): 5800 nM

Structure (SMILES): c1ccc(-n2ncc3c(N4CCOCC4)nc(-c4ccc5[nH]ncc5c4)nc32)cc1 [Example 432, 6-(1H-indazol-5-yl)-4-morpholin-4-yl-1-phenyl-1H-pyrazolo[3,4-d]pyrimidine]
- IC50 (breast line MDA468; Homo sapiens, 72 h): 60000 nM
- IC50 (PI3K): 440 nM
- IC50 (prostate line LNCap; Homo sapiens, LNCaP, 72 h): 20000 nM

Structure (SMILES): CC(C)(C)OC(=O)N1CCC[C@@H](n2ncc3c(N4CCOCC4)nc(-c4ccc5[nH]ccc5c4)nc32)C1 [Compound 167]
- IC50 (breast line MDA468; Homo sapiens, 72 h): 3100 nM
- IC50 (PI3K): 890 nM
- IC50 (prostate line LNCap; Homo sapiens, LNCaP, 72 h): 3000 nM

Structure (SMILES): O=C(Nc1ccncc1)Nc1ccc(-c2nc(N3CCOCC3)c3cnn(C4CCN(C(=O)c5ccccc5)CC4)c3n2)cc1 [Compound 629, 1-{4-[1-(1-benzoylpiperidin-4-yl)-4-morpholin-4-yl-1H-pyrazolo[3,4-d]pyrimidin-6-yl]phenyl}-3-pyridin-4-ylurea]
- IC50 (breast line MDA468): 70 nM
- IC50 (PI3K): 19 nM
- IC50 (prostate line LNCap): 42 nM

Structure (SMILES): CNC(=O)Nc1ccc(-c2nc(N3CCOCC3)c3cnn(C4CCN(C(=O)c5ccc(F)nc5)CC4)c3n2)cc1 [Compound 665, 1-[4-(1-{1-[(6-fluoropyridin-3-yl)carbonyl]piperidin-4-yl}-4-morpholin-4-yl-1H-pyrazolo[3,4-d]pyrimidin-6-yl)phenyl]-3-methylurea]
- IC50 (breast line MDA468): 270 nM
- IC50 (PI3K): 100 nM
- IC50 (prostate line LNCap): 250 nM

Structure (SMILES): c1ccc2cc(-c3nc(N4CCOCC4)c4cnn(C5CCNCC5)c4n3)ccc2c1 [Example 44]
- IC50 (breast line MDA468; Homo sapiens, 72 h): 1400 nM
- IC50 (PI3K): 11000 nM
- IC50 (prostate line LNCap; Homo sapiens, LNCaP, 72 h): 1700 nM

Structure (SMILES): CNC(=O)Nc1ccc(-c2nc(N3CCOCC3)c3cnn(C4CCN(Cc5ccc(Cl)nc5)CC4)c3n2)cc1 [Example 388, 1-[4-(1-{1-[(6-chloropyridin-3-yl)methyl]piperidin-4-yl}-4-morpholin-4-yl-1H-pyrazolo[3,4-d]pyrimidin-6-yl)phenyl]-3-methylurea]
- IC50 (breast line MDA468): 100 nM
- IC50 (PI3K): 47 nM
- IC50 (prostate line LNCap; Homo sapiens, LNCaP, 72 h): 27 nM

Structure (SMILES): COCCNCCc1ccc(NC(=O)Nc2ccc(-c3nc(N4CCOCC4)c4cnn(C5CCN(C(=O)OC)CC5)c4n3)cc2)cc1 [Compound 922, methyl 4-[6-(4-{[(4-{2-[(2-methoxyethyl)amino]ethyl}phenyl)carbamoyl]amino}phenyl)-4-morpholin-4-yl-1H-pyrazolo[3,4-d]pyrimidin-1-yl]piperidine-1-carboxylate]
- IC50 (breast line MDA468; Homo sapiens, 72 h): 90 nM
- IC50 (PI3K): 30 nM
- IC50 (prostate line LNCap; Homo sapiens, LNCaP, 72 h): < 0.8 nM
